We go through 4 compounds from US9839618B2, “Compositions and methods relating to proliferative diseases” (The Penn State Research Foundation, priority 2010, dated 2017).

Entries after “also recorded” stand apart in the source; their conditions may differ. Where only a bound is given, the exact number is not on record here.

The test system of one test is MAPK signaling pathway. In words: Western blot, MAPK pathway. It counts as cell-based, human. Conditions: for MAPK pathway (pERK1/2, pCDK2): Example 8, 24 hours, actives 3-5 μmol/L, inactives 30-50 μmol/L. The procedure:
(§1) For Western blot analysis, cell lysates are harvested by addition of RIPA lysis buffers containing 25 mM Tris.HCl pH 7.6, 150 mM NaCl, 1% NP-40, 1% sodium deoxycholate, 0.1% SDS, 10 mM EDTA, 1 mM sodium orthovanadate, 0.1 mM sodium molybdate, 1 mM phenylmethylsulfonyl fluoride, 20 μg/mL aprotinin, and 5 μg/mL leupeptin. The cell lysates are harvested and processed as described in Madhunapantula, S. V. et al., Cancer Res, 2007, 67:3626-36. Treatment conditions: 1-1.5×10^6 melanoma cells are plated in 100 mm culture dishes, 48 h later, treated with leelamine (3-6 μmol/L) for 3 to 24 hours. Protein lysates are collected for Western blotting. The blots are probed with antibodies according to each supplier's recommendations: antibodies to total Akt, phospho-Akt (Ser473), total PRAS40, phospho-PRAS40 (Thr246), total CREB, phospho-CREB (Ser133), phospho-p70 S6 kinase (Thr389), total Erk1/2, phospho-Erk1/2 (Thr202/Tyr 204), total CDK2, phospho-CDK2 (Thr160), phospho-Rb (Ser807/811), total Stat, phospho-Stat1 (Tyr701), Phospho-Stat-2(Tyr690), Phospho-Stat3(Ser727), phospho-Stat3(Tyr705) and cleaved PARP from Cell Signaling Technology (Danvers, Mass.); total PRAS40 from Invitrogen (Carlsbad, Calif.); cyclin D1, Bcl-2, α-enolase and secondary antibodies conjugated with horseradish peroxidase from Santa Cruz Biotechnology (Santa Cruz, Calif.). Immunoblots are developed using the enhanced chemiluminescence (ECL) detection system (Thermo Fisher Scientific, Rockford, Ill.). Intensity of protein bands is quantified using ImageJ software.
(§2) For Western blot analysis, 1×10^6 melanoma cells are plated in 100 mm culture dishes, 48 hours later, treated with empty liposomes or Nanolipolee-007 (3-6 μmol/L) for 3 to 24 hours. Protein lysates collected for Western blotting. The cell lysates are harvested in an RIPA lysis buffer containing protease and phosphatases inhibitors (Pierce Biotechnology, Rockford, Ill.). Blots are probed with antibodies according to each supplier's recommendations: antibodies to total Akt, phospho-Akt (Ser473), total PRAS40, phospho-PRAS40 (Thr246), total Bad, pBad (Ser 112) total Erk1/2, phospho-Erk1/2 (Thr202/Tyr 204), total CDK2, phospho-CDK2 (Thr160), phospho-Rb (Ser807/811), total Stat, phospho-Stat3 (Tyr705), caspase-3 and cleaved PARP from Cell Signaling Technology (Danvers, Mass.); total PRAS40 from Invitrogen (Carlsbad, Calif.); cyclin D1, α-enolase and secondary antibodies conjugated with horseradish peroxidase from Santa Cruz Biotechnology (Santa Cruz, Calif.). Immunoblots are developed using the enhanced chemiluminescence (ECL) detection system (Thermo Fisher Scientific, Rockford, Ill.). Intensity of protein bands is quantified using ImageJ software.
(§3) Cell lysates are harvested by addition of RIPA lysis buffers containing 25 mM Tris*HCl pH 7.6, 150 mM NaCl, 1% NP-40, 1% sodium deoxycholate, 0.1% SDS, 10 mM EDTA, 1 mM sodium orthovanadate, 0.1 mM sodium molybdate, 1 mM phenylmethylsulfonyl fluoride, 20 μg/mL aprotinin, and 5 μg/mL leupeptin. The cell lysates are harvested and processed as described. […] Protein lysates collected for Western blotting. […] Intensity of protein bands is quantified using ImageJ software. […]

For test [1], the system named is Breast (MCF-7) cancer cell line. In words: MTS assay viability IC50, MCF-7. Conditions: Homo sapiens, MCF7; Table 5. It counts as cell-based. On the procedure: (§4) Dehydroabietylamine, its N-substituted derivatives and the corresponding dihydroabietylamine and its N-substituted derivatives are tested for their capability to inhibit cell growth of cancer cell lines, including melanoma (UACC 903, 1205Lu), breast (MCF-7), fibrosarcoma (HT-1080), colon (Caco-2), and prostate (PC-3) cancer cell lines. Viability and IC50 of normal human fibroblasts and cell lines from melanoma and other malignancies following treatment with all the agents are measured using the MTS assay (Promega, Madison, Wis.). Human fibroblast FF2441 cells, metastatic melanoma cell lines 1205 Lu and UACC 903 as well as cancer cell lines representing sarcoma (HT-1080), prostate (PC-3, LNCaP), breast (MCF-7) and lung (A-549) are maintained in DMEM (Invitrogen, Carlsbad, Calif.) supplemented with 10% FBS (Hyclone, Logan, Utah) in a 5% CO2 atmosphere, humidified 37° C. incubator. 5×10^3 cells per well in 100 μL of media are plated and grown in a 96-well plate for 48 to 72 h and treated with either DMSO vehicle control or 0.62 to 40 μmol/L for 24, 48 or 72 h. IC50 values for each compound in […] for respective cell lines are measured from three independent experiments using GraphPad Prism version 4.01 (GraphPad Software, La Jolla, Calif.). FIG. 52 is a graph showing IC50 values for leelamine and compounds 4a, 4b and 5a in treated fibroblasts (FF2441) compared to melanoma cells. Selectivity ratio here is defined as ratio of activity against fibroblasts compared to activity against melanoma cells. Leelamine is relatively selective with a ratio of >6 and >4 for UACC903 and 1205Lu melanoma cells. The selectivity ratio of compound 4a is ˜4 and ˜3 for UACC903 and 1205Lu and for compound 4b is ˜4 for both cell lines. The selectivity ratio of compound 5a is ˜4 for UACC903 and >2 for 1205Lu cells.

Test [2] concerns Prostate (PC-3) cancer cell line. Kind of test: MTS assay viability IC50, PC-3. Conditions: Table 5. It counts as cell-based. The procedure:
as §4

For test [3], the system named is PI3K/Akt signaling pathway. Kind of test: Western blot, PI3K/Akt pathway. It counts as cell-based, human. Conditions: for PI3K/AKT pathway (pAKT, pPRAS40, cyclin D1): Example 8, 24 hours, actives 3-5 μmol/L, inactives 30-50 μmol/L. The procedure:
as §1, §2, §3

The test system of test [4] is Fibrosarcoma (HT-1080) cancer cell line. Kind of test: MTS assay viability IC50, HT-1080. Conditions: Homo sapiens, Table 5, read-out: IC50 Fibro Sarcoma (HT-1080). Format: cell-based. The procedure:
as §4

The mark [5] stands for this setting: 3 to 6 μmol/L for 3 to 24 hours, UACC 903 and 1205 Lu.

Regarding `CC(C)c1ccc2c(c1)CCC1[C@](C)(CNC(=O)C(F)(F)F)CCC[C@]21C` (stereo partly drawn) [Compound 5a, N-{[(1R,4aS)-1,4a-dimethyl-7-(propan-2-yl)-1,2,3,4,4a,9,10,10a-octahydrophenanthren-1-yl]methyl}-2,2,2-trifluoroacetamide], the “MAPK pathway (pERK1/2, pCDK2)” value with MAPK signaling pathway is “Dose dependent reduction of pERK1/2 and pCDK2”. The IC50 in test [1] is 4.39 ± 0.71 µM; in test [2], 4.66 ± 0.55 µM; in test [4], 3.73 ± 0.54 µM. The “PI3K/AKT pathway (pAKT, pPRAS40, cyclin D1)” value (shortened to “PI3K/AKT pathway”) in test [3] is “decrease pAKT, pPRAS40 and cyclin D1”.

Turning to `CC(C)C1=CC2=CCC3[C@](C)(CN)CCC[C@]3(C)C2CC1` (stereo partly drawn) [Compound 4a, {[(1R,4aR)-1,4a-dimethyl-7-(propan-2-yl)-1,2,3,4,4a,4b,5,6,10,10a-decahydrophenanthren-1-yl]methyl}amine], in the test with MAPK signaling pathway, the “MAPK pathway (pERK1/2, pCDK2)” value is “Dose dependent reduction of pERK1/2 and pCDK2”. For the same compound, the IC50 worked out at 8.69 ± 1.81 µM in test [1], 9.73 ± 1.04 µM in test [2] and 6.29 ± 1.1 µM in test [4]. In addition, in test [3], the “PI3K/AKT pathway” value was “decrease pAKT, pPRAS40 and cyclin D1”.

Regarding `CC(C)c1ccc2c(c1)CCC1[C@](C)(CN)CCC[C@]21C` (stereo partly drawn) [Leelamine, [(1R,4aS)-1,4a-dimethyl-7-(propan-2-yl)-1,2,3,4,4a,9,10,10a-octahydrophenanthren-1-yl]methanamine], the “MAP kinase pathway signaling” value with MAPK signaling pathway (setting [5]) is “decrease activity”. The “MAPK pathway (pERK1/2, pCDK2)” value in the test on MAPK signaling pathway is “blocks activation of ERK1/2; also recorded: Dose dependent reduction of pERK1/2 and pCDK2”. For the same compound, the IC50 in test [1] amounted to 6.42 ± 0.52 µM; in test [2], 4.85 ± 1.09 µM; in test [4], 3.75 ± 0.54 µM. The “PI3 kinase pathway signaling” value in test [3] (setting [5]) is “decrease activity”. The “PI3K/AKT pathway” value in test [3] was “highly effective in abolishing activation of AKT pathway; also recorded: decrease pAKT, pPRAS40 and cyclin D1”.

Consider `CC(C)C1=CC2=CCC3[C@](C)(CCC[C@@]3(C)C(=O)O)C2CC1` (stereo partly drawn) [Abietic acid, (1R,4aR)-1,4a-dimethyl-7-(propan-2-yl)-1,2,3,4,4a,4b,5,6,10,10a-decahydrophenanthrene-1-carboxylic acid, reference compound], for which the “MAPK pathway (pERK1/2, pCDK2)” value in the test with MAPK signaling pathway is given as “unable to affect”. In addition, the IC50 in test [1], in test [2] and in test [4] was more than 100 µM each time. For the same compound, the “PI3K/AKT pathway” value in test [3] is recorded as “unable to affect”.
